These results are taken from PubChem BioAssay (NCI).

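Assay format: 96-well plates, 48-hour exposure. GI50: concentration for 50% inhibition of growth. At the TGI there is no net growth.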

The subject of the first experiment is SK-MEL-2 melanoma. Kind of experiment: NCI tumour cell line growth inhibition, 48 h.
`ONC1=Nc2cc(Cl)ccc2C(=S)N2CSCC12` (stereo not drawn) showed a TGI above 100 µM.

Consider `Cc1nc2ccc(Br)cc2c(=O)n1-c1nnc(C(C)(C)C)s1`, for which the TGI was above 10 µM.

`COc1cc2c(cc1O)c(O)cc1c3cc(OC)c(OC)cc3c[n+](C)c21` returned a TGI above 100 µM.

`CCOC(=O)c1sc(=S)n(-c2ccc(Cl)cc2)c1-n1cc(-c2ccccc2)c(C#N)c1N`: the TGI was determined as 64 µM.

Regarding `COC1(OC)N=C(N)C2(C#N)C(c3ccccc3)NC3=C(CCC3)C12C#N` (stereo not drawn), the TGI was above 100 µM.

On to `NC(N)=NS(=O)(=O)c1ccc(NNc2c3ccccc3nc3ccccc23)cc1`, for which the TGI turned out to be 37.1 µM.

Take `COC(=O)[C@@H]1C[C@H]2OC(=O)CC[C@]2(C)O[C@H]1[C@H]1O[C@@](C)(O)CCC[C@H]1C`: the TGI was above 50 µM.

The compound `CC(C)CCNC(=O)c1ccc(CNC(=O)/C=C/c2cccc(Oc3ccccc3)c2)cc1` registered a TGI of 72.5 µM.

Compound `COc1cc2c(cc1OCCCCCCCCCCN1C(=O)c3cccc4cccc(c34)C1=O)N=C[C@@H]1CCCN1C2=O` returned a TGI of 20.3 µM.

As for `COc1ccc(Cn2c(=O)c(OC)c(C)c3cc4ccccc4cc32)cc1`, the TGI stood at 52.5 µM.

`CCOC(=O)Nc1cc2c(c(N)n1)N=C(c1ccc(OC)cc1)CN2` returned a TGI of 0.0838 µM.

The compound `O=C1NC(=S)N/C1=C\c1cccs1` showed a TGI above 100 µM.

Compound `CC(C)(C)C1CCC(=O)/C(=C/CC2CC(=O)N(c3ccccc3)C(=O)C2)C1` (stereo not drawn) gave a TGI of 42.9 µM.

On to `C[C@@H](C(=O)O)N1C(c2ccco2)=C(/C(C=O)=C\c2ccco2)C(=O)/C1=C\c1ccco1`, for which the TGI is above 100 µM.

A further experiment relates to T-47D breast. Kind of experiment: NCI tumour cell line growth inhibition, 48 h.
For the compound `O=C1CS(=O)(=O)C(c2cccc(Oc3ccccc3)c2)N1c1ccc(Cl)cc1` (stereo not drawn), the TGI is above 100 µM.

`Cc1n(CC(C)C)c2c([n+]1C)C(=O)c1ccccc1C2=O` showed a TGI of 0.441 µM.

For the compound `Cc1cccc(Cl)c1NCC(O)CN1CCN(C)CC1` (stereo not drawn), the TGI was above 100 µM.

On to `C=C(CCOC)CCC1CCCCC(CN(C)C)C1=O` (stereo not drawn), for which the TGI is above 100 µM.

Consider `ONC1=Nc2cc(Cl)ccc2C(=S)N2CSCC12` (stereo not drawn), for which the TGI is above 100 µM.

In turn, `Cc1nc2ccc(Br)cc2c(=O)n1-c1nnc(C(C)(C)C)s1` gave a TGI above 10 µM.

`COc1cc2c(cc1O)c(O)cc1c3cc(OC)c(OC)cc3c[n+](C)c21` displayed a TGI above 80.3 µM.

Turning to `CCOC(=O)c1sc(=S)n(-c2ccc(Cl)cc2)c1-n1cc(-c2ccccc2)c(C#N)c1N`, the TGI is 27.8 µM.

Regarding `COC1(OC)N=C(N)C2(C#N)C(c3ccccc3)NC3=C(CCC3)C12C#N` (stereo not drawn), the TGI is above 100 µM.

With `NC(N)=NS(=O)(=O)c1ccc(NNc2c3ccccc3nc3ccccc23)cc1`, the TGI amounted to 41.9 µM.

With `COC(=O)[C@@H]1C[C@H]2OC(=O)CC[C@]2(C)O[C@H]1[C@H]1O[C@@](C)(O)CCC[C@H]1C`, the TGI was above 50 µM.

`CC(C)CCNC(=O)c1ccc(CNC(=O)/C=C/c2cccc(Oc3ccccc3)c2)cc1` gave a TGI above 100 µM.

`COc1cc2c(cc1OCCCCCCCCCCN1C(=O)c3cccc4cccc(c34)C1=O)N=C[C@@H]1CCCN1C2=O`: the TGI is above 100 µM.

`COc1ccc(Cn2c(=O)c(OC)c(C)c3cc4ccccc4cc32)cc1` displayed a TGI above 100 µM.

Consider `CCOC(=O)Nc1cc2c(c(N)n1)N=C(c1ccc(OC)cc1)CN2`, for which the GI50 was above 100 µM and the TGI was above 100 µM.

Consider `O=C1NC(=S)N/C1=C\c1cccs1`, for which the TGI is above 100 µM.

On to `CC(C)(C)C1CCC(=O)/C(=C/CC2CC(=O)N(c3ccccc3)C(=O)C2)C1` (stereo not drawn), for which the TGI stood at 48.6 µM.

Turning to `C[C@@H](C(=O)O)N1C(c2ccco2)=C(/C(C=O)=C\c2ccco2)C(=O)/C1=C\c1ccco1`, the TGI was above 100 µM.

Another experiment has as its system U251 CNS. The experiment is described as follows: NCI tumour cell line growth inhibition, 48 h.
`O=C1CS(=O)(=O)C(c2cccc(Oc3ccccc3)c2)N1c1ccc(Cl)cc1` (stereo not drawn) yielded a TGI of 56.1 µM.

In turn, `Cc1n(CC(C)C)c2c([n+]1C)C(=O)c1ccccc1C2=O` returned a TGI of 0.499 µM.

For the compound `Cc1cccc(Cl)c1NCC(O)CN1CCN(C)CC1` (stereo not drawn), the TGI is above 100 µM.

The compound `C=C(CCOC)CCC1CCCCC(CN(C)C)C1=O` (stereo not drawn) displayed a TGI above 100 µM.

`ONC1=Nc2cc(Cl)ccc2C(=S)N2CSCC12` (stereo not drawn) registered a TGI above 100 µM.

`Cc1nc2ccc(Br)cc2c(=O)n1-c1nnc(C(C)(C)C)s1` displayed a TGI above 10 µM.

Compound `COc1cc2c(cc1O)c(O)cc1c3cc(OC)c(OC)cc3c[n+](C)c21` registered a TGI of 4.57 µM.

Consider `CCOC(=O)c1sc(=S)n(-c2ccc(Cl)cc2)c1-n1cc(-c2ccccc2)c(C#N)c1N`, for which the TGI came to 32.7 µM.

`COC1(OC)N=C(N)C2(C#N)C(c3ccccc3)NC3=C(CCC3)C12C#N` (stereo not drawn) returned a TGI above 100 µM.

`NC(N)=NS(=O)(=O)c1ccc(NNc2c3ccccc3nc3ccccc23)cc1` returned a TGI of 24.2 µM.

With `COC(=O)[C@@H]1C[C@H]2OC(=O)CC[C@]2(C)O[C@H]1[C@H]1O[C@@](C)(O)CCC[C@H]1C`, the TGI is above 50 µM.

Turning to `CC(C)CCNC(=O)c1ccc(CNC(=O)/C=C/c2cccc(Oc3ccccc3)c2)cc1`, the TGI was above 100 µM.

With `COc1cc2c(cc1OCCCCCCCCCCN1C(=O)c3cccc4cccc(c34)C1=O)N=C[C@@H]1CCCN1C2=O`, the TGI came out at 13.4 µM.

On to `COc1ccc(Cn2c(=O)c(OC)c(C)c3cc4ccccc4cc32)cc1`, for which the TGI was found to be 80.6 µM.

The compound `CCOC(=O)Nc1cc2c(c(N)n1)N=C(c1ccc(OC)cc1)CN2` gave a TGI of 2.47 µM.

Regarding `O=C1NC(=S)N/C1=C\c1cccs1`, the TGI was above 100 µM.

As for `CC(C)(C)C1CCC(=O)/C(=C/CC2CC(=O)N(c3ccccc3)C(=O)C2)C1` (stereo not drawn), the TGI amounted to 31 µM.

In turn, `C[C@@H](C(=O)O)N1C(c2ccco2)=C(/C(C=O)=C\c2ccco2)C(=O)/C1=C\c1ccco1` showed a TGI above 100 µM.

The next experiment concerns UACC-62 melanoma. The experiment is described as follows: NCI tumour cell line growth inhibition, 48 h.
`O=C1CS(=O)(=O)C(c2cccc(Oc3ccccc3)c2)N1c1ccc(Cl)cc1` (stereo not drawn) came in with a TGI of 24.6 µM.

`Cc1n(CC(C)C)c2c([n+]1C)C(=O)c1ccccc1C2=O` had a TGI of 0.576 µM.

For the compound `Cc1cccc(Cl)c1NCC(O)CN1CCN(C)CC1` (stereo not drawn), the TGI is above 100 µM.

`C=C(CCOC)CCC1CCCCC(CN(C)C)C1=O` (stereo not drawn) came in with a TGI above 100 µM.

For the compound `ONC1=Nc2cc(Cl)ccc2C(=S)N2CSCC12` (stereo not drawn), the TGI was above 100 µM.

`Cc1nc2ccc(Br)cc2c(=O)n1-c1nnc(C(C)(C)C)s1`: the TGI is above 10 µM.

Take `COc1cc2c(cc1O)c(O)cc1c3cc(OC)c(OC)cc3c[n+](C)c21`: the TGI is above 100 µM.

Turning to `CCOC(=O)c1sc(=S)n(-c2ccc(Cl)cc2)c1-n1cc(-c2ccccc2)c(C#N)c1N`, the TGI was 85.9 µM.

Compound `COC1(OC)N=C(N)C2(C#N)C(c3ccccc3)NC3=C(CCC3)C12C#N` (stereo not drawn) had a TGI above 100 µM.

On to `NC(N)=NS(=O)(=O)c1ccc(NNc2c3ccccc3nc3ccccc23)cc1`, for which the TGI turned out to be 35.3 µM.

`COC(=O)[C@@H]1C[C@H]2OC(=O)CC[C@]2(C)O[C@H]1[C@H]1O[C@@](C)(O)CCC[C@H]1C` gave a TGI above 50 µM.

`CC(C)CCNC(=O)c1ccc(CNC(=O)/C=C/c2cccc(Oc3ccccc3)c2)cc1` yielded a TGI of 71.1 µM.

`COc1cc2c(cc1OCCCCCCCCCCN1C(=O)c3cccc4cccc(c34)C1=O)N=C[C@@H]1CCCN1C2=O`: the TGI worked out at 24.8 µM.

Take `COc1ccc(Cn2c(=O)c(OC)c(C)c3cc4ccccc4cc32)cc1`: the TGI is 69.9 µM.

Take `O=C1NC(=S)N/C1=C\c1cccs1`: the TGI is above 100 µM.

Turning to `CC(C)(C)C1CCC(=O)/C(=C/CC2CC(=O)N(c3ccccc3)C(=O)C2)C1` (stereo not drawn), the TGI came to 27.7 µM.

As to `C[C@@H](C(=O)O)N1C(c2ccco2)=C(/C(C=O)=C\c2ccco2)C(=O)/C1=C\c1ccco1`, the TGI was above 100 µM.
